The text below walks through data of patent US20240409557A1, “5,6-FUSED AND 6,6-FUSED BICYCLIC ALCOHOLS AND ETHERS AND COMPOSITIONS FOR USE AS 15-PROSTAGLANDIN DEHYDROGENASE MODULATORS” (AMGEN INC., priority 2023, published 2024).

One assay concerns the target T1, 15-PGDH in A549 cells (Homo sapiens, UniProt P15428).
T1 construct: endogenous in cells; host or cells: A549
T1 sequence (P15428 1-266): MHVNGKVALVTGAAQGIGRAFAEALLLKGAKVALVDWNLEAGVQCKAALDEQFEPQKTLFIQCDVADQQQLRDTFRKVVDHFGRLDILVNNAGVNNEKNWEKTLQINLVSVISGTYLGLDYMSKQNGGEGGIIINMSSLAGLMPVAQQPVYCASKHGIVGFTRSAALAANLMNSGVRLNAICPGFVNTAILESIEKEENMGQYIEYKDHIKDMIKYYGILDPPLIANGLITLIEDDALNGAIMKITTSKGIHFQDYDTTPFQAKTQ
Kind of assay: A549 cellular 15-PGDH assay (PGE2 accumulation, HTRF). In kind it is cell-based. The settings on record: interleukin-stimulated, inhibitor 24 hrs, PGE2 by competitive HTRF, read-out: A549 Cell Assay IC50. The text has this:
This assay was used for the quantification of IL-13 induced Native Prostaglandin E2 (PGE2) produced by A549 cells (epithelial cells from lung carcinoma) in cell culture supernatants. […] PGE2 was detected in a competitive HTRF assay by using anti PGE2 antibody labeled with Europium cryptate, and PGE2 labeled with […]. The PGE2 present in the sample competes with the binding between the two HTRF detection solutions (reagents) and thereby prevents FRET from occurring. The specific signal is inversely proportional to the PGE2 concentration. From this binding data, IC50 values were calculated.

The target of assay [1] is T2, human recombinant 15-PGDH (Homo sapiens, UniProt P15428).
T2 sequence (P15428 1-266): T1 sequence (P15428 1-266)
Kind of assay: Recombinant 15-PGDH enzymatic inhibition assay (PGDH-Lumi, NADH signal). In kind it is biochemical. The settings on record: recombinant 15-PGDH; 15 min pre-incubation, 60 min reaction with PGE2 and NAD+, NADH signal. In outline: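 Buffer 50 mM Tris pH 7.5 with 0.01% Tween-20 and […]; compound, 22 two-fold dilutions, pre-incubated with enzyme 15 min before substrate.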

Usually IC50 stands for the concentration at which inhibition is half-maximal. In the case of `CNc1ncc(-c2ccc3cc(C4(O)CC(F)(F)C4)sc3n2)cn1` [Compound C43, 3,3-difluoro-1-(6-(2-(methylamino)-5-pyrimidinyl)thieno[2,3-b]pyridin-2-yl)cyclobutanol], the figures for the IC50 (at 15-PGDH in A549 cells; in assay [1]) were 6.34 nM and 5.3 nM, respectively.

Regarding `CO[C@H]1CC[C@@]1(O)c1cc2ccc(-c3cnc4nn(C)cc4c3)nc2s1` (single isomer, unassigned) [Compound C70SS], the IC50 on 15-PGDH in A549 cells was 316 nM; in assay [1], 2280 nM.

Consider `Cn1cc2cc(-c3ccc4cc([C@]5(O)C[C@@H](C(F)(F)F)C5)sc4n3)cnc2n1` [Compound C29C, cis-1-(6-(2-methyl-2H-pyrazolo[3,4-b]pyridin-5-yl)thieno[2,3-b]pyridin-2-yl)-3-(trifluoromethyl)cyclobutanol], for which the figures for the half-maximal inhibitory concentration (IC50) (at 15-PGDH in A549 cells; in assay [1]) were 0.0513 nM and 0.3 nM, respectively.

Take `CCn1cc2cc(-c3ccc4cc([C@@H](O)C5CC(F)(F)C5)sc4n3)cnc2n1` (single isomer, unassigned) [Compound B53S]: the results for the IC50 (on 15-PGDH in A549 cells; in assay [1]) were 0.288 nM and 0.436 nM, respectively.

For `OC1(c2cc3ccc(-c4cncnc4)nc3s2)CC(F)(F)C1` [Compound C46, 3,3-difluoro-1-(6-(5-pyrimidinyl)thieno[2,3-b]pyridin-2-yl)cyclobutanol], the IC50 on 15-PGDH in A549 cells stood at 12.3 nM; in assay [1] it was 26.1 nM.

As to `Nc1ncc(-c2ccc3cc(C4(O)CC(F)(F)C4)sc3n2)cn1` [Compound C38, 1-(6-(2-amino-5-pyrimidinyl)thieno[2,3-b]pyridin-2-yl)-3,3-difluorocyclobutanol], the figures for the 50% inhibitory concentration (IC50) (at 15-PGDH in A549 cells; in assay [1]) were 3.75 nM and 4.59 nM, respectively.

As to `CCn1cc2cc(-c3ccc4cc([C@]5(O)C[C@@H](C(F)F)C5)sc4n3)cnc2n1` [Compound C87C, cis-3-(difluoromethyl)-1-(6-(2-ethyl-2H-pyrazolo[3,4-b]pyridin-5-yl)thieno[2,3-b]pyridin-2-yl)cyclobutanol], the 50% inhibitory concentration (IC50) was determined as 0.842 nM at 15-PGDH in A549 cells and 0.61 nM in assay [1].

In the case of `Cn1cc2cc(-c3ccc4cc([C@]5(O)C[C@@](C)(C#N)C5)sc4n3)cnc2n1` [Compound C63C, cis-3-hydroxy-1-methyl-3-(6-(2-methyl-2H-pyrazolo[3,4-b]pyridin-5-yl)thieno[2,3-b]pyridin-2-yl)cyclobutanecarbonitrile], the IC50 was 0.115 nM on 15-PGDH in A549 cells and 0.429 nM in assay [1].

Consider `Cn1nnc2cc(-c3ccc4cc([C@]5(O)C[C@@H](C(F)(F)F)C5)sc4n3)cnc21` [Compound C79C, cis-1-(6-(3-methyl-3H-[1,2,3]triazolo[4,5-b]pyridin-6-yl)thieno[2,3-b]pyridin-2-yl)-3-(trifluoromethyl)cyclobutanol], for which the IC50 at 15-PGDH in A549 cells came out at 0.832 nM; in assay [1], 0.585 nM.

With `CO[C@]1(C)C[C@@](O)(c2nc3ccc(-c4cnc5nn(C)cc5c4)nc3s2)C1` (single isomer, unassigned) [Compound C125C, cis-3-methoxy-3-methyl-1-(5-(2-methyl-2H-pyrazolo[3,4-b]pyridin-5-yl)[1,3]thiazolo[5,4-b]pyridin-2-yl)cyclobutanol], the values for the half-maximal inhibitory concentration (IC50) (on 15-PGDH in A549 cells; in assay [1]) were 2.9 nM and 0.817 nM, respectively.

Take `Cn1cc2cc(-c3ccc4ccc([C@H](O)C5CC(F)(F)C5)cc4n3)cnc2n1` (single isomer, unassigned) [Compound D1R]: the IC50 came out at 0.0822 nM on 15-PGDH in A549 cells and 0.605 nM in assay [1].

With `CC(O)c1cc2c(C3CC3)cc(-c3cnc4nn(C)cc4c3)nc2s1` (stereo not drawn) [Compound B11, 1-(4-cyclopropyl-6-(2-methyl-2H-pyrazolo[3,4-b]pyridin-5-yl)thieno[2,3-b]pyridin-2-yl)ethanol], the IC50 on 15-PGDH in A549 cells is 31.9 nM; in assay [1] it was 7.12 nM.

For the compound `CO[C@H]1C[C@H]([C@H](O)c2cc3ccc(-c4cnc5nn(C)cc5c4)nc3s2)C1` (single isomer, unassigned) [Compound B88ST], the half-maximal inhibitory concentration (IC50) turned out to be 0.504 nM on 15-PGDH in A549 cells and 1.12 nM in assay [1].

Consider `Cn1cc2cc(-c3ccc4cc([C@@H](O)C5COC5)sc4n3)cnc2n1` (single isomer, unassigned) [Compound B28S], for which the concentration for half-maximal inhibition (IC50) at 15-PGDH in A549 cells was 9.56 nM; in assay [1] it was 12.2 nM.

For the compound `Cn1cc2cc(-c3ccc4cc([C@@H](O)C(F)(F)F)sc4n3)cnc2n1` (single isomer, unassigned) [Compound B23S], the 50% inhibitory concentration (IC50) on 15-PGDH in A549 cells is 19.2 nM; in assay [1], 121 nM.

With `O[C@@H](c1cc2ccc(-c3cnc4[nH]ncc4c3)nc2s1)C1CC(F)(F)C1` (single isomer, unassigned) [Compound B47R], the IC50 at 15-PGDH in A549 cells was 0.366 nM; in assay [1], 0.21 nM.

As to `Cn1cc2cc(-c3ccc4sc([C@H](O)C5CC(F)(F)C5)cc4n3)cnc2n1` (single isomer, unassigned) [Compound B73R], the figures for the IC50 (at 15-PGDH in A549 cells; in assay [1]) were 0.061 nM and 0.412 nM, respectively.

Regarding `COC[C@H]1C[C@](O)(c2cc3ccc(-c4cnc5nn(C)cc5c4)nc3s2)C1` (single isomer, unassigned) [Compound C58C, cis-3-(methoxymethyl)-1-(6-(2-methyl-2H-pyrazolo[3,4-b]pyridin-5-yl)thieno[2,3-b]pyridin-2-yl)cyclobutanol], the half-inhibitory concentration (IC50) was 0.519 nM on 15-PGDH in A549 cells and 0.889 nM in assay [1].

Turning to `Cn1cc2cc(-c3ccc4cc([C@H](O)[C@@H]5CCC5(F)F)sc4n3)cnc2n1` (single isomer, unassigned) [Compound B94RS], the results for the IC50 (on 15-PGDH in A549 cells; in assay [1]) were 0.657 nM and 0.325 nM, respectively.

For the compound `OC1(c2cc3ccc(-c4ccc5oncc5c4)nc3s2)CC(F)(F)C1` [Compound C50, 1-(6-(1,2-benzoxazol-5-yl)thieno[2,3-b]pyridin-2-yl)-3,3-difluorocyclobutanol], the concentration for half-maximal inhibition (IC50) on 15-PGDH in A549 cells was found to be 11.1 nM; in assay [1], 34.7 nM.

In the case of `O[C@H](c1cc2ccc(-c3cnc4[nH]ncc4c3)nc2s1)C1CC(F)(F)C1` (single isomer, unassigned) [Compound B47S], the figures for the IC50 (on 15-PGDH in A549 cells; in assay [1]) were 1.93 nM and 0.758 nM, respectively.

Turning to `Cn1cc2cc(-c3ncc4cc([C@H](O)C5CC(F)(F)C5)sc4n3)cnc2n1` (single isomer, unassigned) [Compound B75R], the IC50 came out at 0.0162 nM on 15-PGDH in A549 cells and 0.382 nM in assay [1].

On to `Cc1c2ccc(-c3cnc4nn(C)cc4c3)nc2sc1[C@]1(O)C[C@@H](C(F)(F)F)C1` [Compound C78C, cis-1-(3-methyl-6-(2-methyl-2H-pyrazolo[3,4-b]pyridin-5-yl)thieno[2,3-b]pyridin-2-yl)-3-(trifluoromethyl)cyclobutanol], for which the 50% inhibitory concentration (IC50) amounted to 2.42 nM on 15-PGDH in A549 cells and 1.03 nM in assay [1].

`Cn1cc2cc(-c3ccc4sc([C@]5(O)C[C@](C)(C#N)C5)cc4n3)cnc2n1` (single isomer, unassigned) [Compound C106T, trans-3-hydroxy-1-methyl-3-(5-(2-methyl-2H-pyrazolo[3,4-b]pyridin-5-yl)thieno[3,2-b]pyridin-2-yl)cyclobutanecarbonitrile]: the half-inhibitory concentration (IC50) on 15-PGDH in A549 cells stood at 45.2 nM; in assay [1], 24.2 nM.

As for `CC(C)n1ncc2cc(-c3ccc4cc([C@H](O)C5CC(F)(F)C5)sc4n3)cnc21` (single isomer, unassigned) [Compound B65R], the values for the 50% inhibitory concentration (IC50) (on 15-PGDH in A549 cells; in assay [1]) were 0.263 nM and 0.381 nM, respectively.

Take `Cn1cc2cc(-c3ccc4nc([C@@H](O)C5CC(F)(F)C5)sc4n3)cnc2n1` (single isomer, unassigned) [Compound B72S]: the IC50 on 15-PGDH in A549 cells was found to be 5.27 nM; in assay [1], 9.58 nM.

Consider `Cn1ncc2cc(-c3ccc4cc([C@H](O)C5CCOCC5)sc4n3)cnc21` (single isomer, unassigned) [Compound B35R], for which the figures for the IC50 (at 15-PGDH in A549 cells; in assay [1]) were 18.2 nM and 1.09 nM, respectively.

For the compound `CCC[C@@H](O)c1cc2ccc(-c3cnc4nn(C)cc4c3)cc2s1` (single isomer, unassigned) [Compound B54R], the IC50 was determined as 11.8 nM on 15-PGDH in A549 cells and 4.11 nM in assay [1].

In the case of `Cn1cc2cc(-c3ccc4cc([C@H](O)[C@H]5CCC5(F)F)sc4n3)cnc2n1` (single isomer, unassigned) [Compound B94RR], the IC50 on 15-PGDH in A549 cells is 0.661 nM; in assay [1], 0.34 nM.

As to `Cn1cc2cc(-c3ccc4cc(C5(O)CC6(CCC6)C5)sc4n3)cnc2n1` [Compound C25, 2-(6-(2-methyl-2HI-pyrazolo[3,4-b]pyridin-5-yl)thieno[2,3-b]pyridin-2-yl)spiro[3.3]heptan-2-ol], the values for the IC50 (at 15-PGDH in A549 cells; in assay [1]) were 0.14 nM and 0.332 nM, respectively.

Take `Cn1cc2cc(-c3ccc4cc([C@H](O)[C@H]5C[C@@H](C(F)(F)F)C5)sc4n3)cnc2n1` (single isomer, unassigned) [Compound B84RC]: the IC50 amounted to 0.492 nM on 15-PGDH in A549 cells and 0.47 nM in assay [1].

Consider `Cn1cc2cc(-c3ccc4cc([C@@H](O)C5CC(F)(F)C5)ccc4n3)cnc2n1` (single isomer, unassigned) [Compound D7S], for which the half-inhibitory concentration (IC50) at 15-PGDH in A549 cells is 168 nM; in assay [1] it was 265 nM.

With `Cc1cn2ncc(-c3ccc4cc(C5(O)CC(F)(F)C5)sc4n3)cc2n1` [Compound C54, 3,3-difluoro-1-(6-(2-methylimidazo[1,2-b]pyridazin-7-yl)thieno[2,3-b]pyridin-2-yl)cyclobutanol], the half-maximal inhibitory concentration (IC50) at 15-PGDH in A549 cells amounted to 3.06 nM; in assay [1], 3.51 nM.
